pKd: −log10 of the molar value.

For one compound, Kd results are on record in PMC10957239 (Carbohydrate research, 2024).

The target of the assay is T1, rhDectin-2 (Homo sapiens, UniProt Q6EIG7).
T1 sequence (Q6EIG7 42-209 limits assumed): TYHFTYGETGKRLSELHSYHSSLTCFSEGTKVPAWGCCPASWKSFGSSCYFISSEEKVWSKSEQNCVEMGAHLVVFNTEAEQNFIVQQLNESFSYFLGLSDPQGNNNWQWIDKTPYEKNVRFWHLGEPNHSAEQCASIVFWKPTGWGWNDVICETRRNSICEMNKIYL
The assay is described as follows: biolayer interferometry. Format: binding. A general note: In BLI a coated tip is dipped into the sample, and binding shifts an interference pattern.

As to `C=CCO[C@H]1O[C@H](CO)[C@@H](OP(=O)(O)O[C@H]2O[C@H](CO)[C@@H](O)[C@H](O)[C@@H]2O)[C@H](O)[C@@H]1O` [compound 7, Allyl α-D-mannopyranoside α-D-mannopyranosyl-4-sodium phosphate], the pKd – broadly, −log10 of the Kd, conventionally taken in molar units – was 4.87.
